Source: patent US20260070928A1, “NOVEL CRYSTALLINE FORMS OF (S)-7-OXA-2-AZA-SPIRO[4.5]DECANE-2-CARBOXYLIC ACID [7-(3,6-DIHYDRO-2H-PYRAN-4-YL)-4-METHOXY-THIAZOLO[4,5-C]PYRIDIN-2-YL]-AMIDE AND CO-CRYSTAL FORMS THEREOF” (Domain Therapeutics S.A., priority 2022, published 2026)

Assays:
[1] = water vapour sorption isotherm (25° C.), DVS intrinsic system; hygroscopicity according to Ph. Eur. 5.11; format: physicochemical; conditions: for water uptake levels (water vapour sorption): 25° C.
From the text: The amorphous state can be classified as hygroscopic according to Ph. […] The water vapour sorption isotherm was acquired on a DVS intrinsic system from SMS.
Eur. criteria (section 5.11.).
The water vapour sorption isotherm was acquired on a DVS Intrinsic system from SMS.
(§1) The mono fumaric acid co-crystal form A1 is characterised by the following physical properties: • 1 eq. […] The DSC scan of mono fumaric acid co-crystal form A1 was acquired on a Mettler-Toledo DSC1 with a heating rate of 5 K/min, using nitrogen purge gas at 50 mL/min. […] Eur. criteria (section 5.11.). […] The water vapour sorption isotherm was acquired on a DVS intrinsic system from SMS. • The concentration levels of the mono fumaric acid co-crystal form A1 were determined at 37° C. after 15 min and 30 min in non-sink-dissolution experiments.
as §1, with “The hemi” for “The mono”, “form A2” for “form A1”, “• 0.5” for “• 1”, “of the hemi” for “of mono”, “Eur. Criteria” for “Eur. criteria”, “the hemi” for “the mono”

[2] = non-sink dissolution experiments in biorelevant media at 37° C.; format: physicochemical; conditions: for Dissolution levels after 15 min / Dissolution levels after 30 min: 37° C., non-sink dissolution; for dissolution behaviour in biorelevant intestinal milieu (FaSSIF) compared to crystalline entities of the free compound: comparison in words
Description: as §1
as §1, with “The hemi” for “The mono”, “form A2” for “form A1”, “• 0.5” for “• 1”, “of the hemi” for “of mono”, “Eur. Criteria” for “Eur. criteria”, “the hemi” for “the mono”

[3] = full relative humidity range 0-98% RH

| hygroscopicity classification according to Ph. Eur. criteria (section 5.11.) ([1]; 25° C. water vapour sorption) | water uptake levels (water vapour sorption) [1, 3] | tendency to undergo hydrate formation upon exposure to elevated RH levels [1] | Dissolution levels after 15 min ([2]; FaSSIF [pH 6.5]) | Dissolution levels after 30 min ([2]; FaSSIF [pH 6.5]) | dissolution behaviour in biorelevant intestinal milieu (FaSSIF) compared to crystalline entities of the free compound [2] | Dissolution levels after 15 min ([2]; FeSSIF [pH 5.0]) | Dissolution levels after 30 min ([2]; FeSSIF [pH 5.0]) | Dissolution levels after 15 min ([2]; SGF [pH 1.2]) | Dissolution levels after 30 min ([2]; SGF [pH 1.2]) | Compound | further results |
| --- | --- | --- | --- | --- | --- | --- | --- | --- | --- | --- | --- |
|  |  |  |  | approx. 145 μg/mL |  |  |  |  |  | COc1ncc(C2=CCOCC2)c2sc(NC(=O)N3CC[C@@]4(CCCOC4)C3)nc12 [hemi tartaric acid co-crystal form NF2, (S)-7-Oxa-2-aza-spiro[4,5]decane-2-carboxylic acid [7-(3,6-dihydro2H-pyran-4-yl)-4-methoxy-thiazolo[4,5-c]pyridin-2-yl]-amide] |  |
| Not hygroscopic |  | no tendency to undergo hydrate formation |  |  |  |  |  |  |  | COc1ncc(C2=CCOCC2)c2sc(NC(=O)N3CC[C@@]4(CCCOC4)C3)nc12 [mono 3-hydroxybenzoic acid co-crystal form NF1] [(S)-7-Oxa-2-aza-spiro[4,5]decane-2-carboxylic acid [7-(3,6-dihydro2H-pyran-4-yl)-4-methoxy-thiazolo[4,5-c]pyridin-2-yl]-amide] |  |
| Slightly hygroscopic | < 3 % (w/w) | no tendency to undergo hydrate formation | 278 µg/mL | 360 µg/mL | improved dissolution behaviour | 375 µg/mL | 462 µg/mL | 331 µg/mL | 385 µg/mL | COc1ncc(C2=CCOCC2)c2sc(NC(=O)N3CC[C@@]4(CCCOC4)C3)nc12 [mono fumaric acid co-crystal form A1, (S)-7-Oxa-2-aza-spiro[4,5]decane-2-carboxylic acid [7-(3,6-dihydro2H-pyran-4-yl)-4-methoxy-thiazolo[4,5-c]pyridin-2-yl]-amide] |  |

The remaining lines, values behind:

| Compound | hygroscopicity classification according to Ph. Eur. criteria (section 5.11.) ([1]; 25° C. water vapour sorption) | water uptake levels (water vapour sorption) [1, 3] | tendency to undergo hydrate formation upon exposure to elevated RH levels [1] | Dissolution levels after 15 min ([2]; FaSSIF [pH 6.5]) | Dissolution levels after 30 min ([2]; FaSSIF [pH 6.5]) | dissolution behaviour in biorelevant intestinal milieu (FaSSIF) compared to crystalline entities of the free compound [2] | Dissolution levels after 15 min ([2]; FeSSIF [pH 5.0]) | Dissolution levels after 30 min ([2]; FeSSIF [pH 5.0]) | Dissolution levels after 15 min ([2]; SGF [pH 1.2]) | Dissolution levels after 30 min ([2]; SGF [pH 1.2]) | further results |
| --- | --- | --- | --- | --- | --- | --- | --- | --- | --- | --- | --- |
| COc1ncc(C2=CCOCC2)c2sc(NC(=O)N3CC[C@@]4(CCCOC4)C3)nc12 [amorphous state, (S)-7-Oxa-2-aza-spiro[4,5]decane-2-carboxylic acid [7-(3,6-dihydro2H-pyran-4-yl)-4-methoxy-thiazolo[4,5-c]pyridin-2-yl]-amide] | hygroscopic | > 22 % (w/w) |  |  |  |  |  |  |  |  | humidity level at which tendencies for deliquescence are shown ([1]; 25° C. water vapour sorption): > 90 % RH |
| COc1ncc(C2=CCOCC2)c2sc(NC(=O)N3CC[C@@]4(CCCOC4)C3)nc12 [crystalline anhydrous form A1, (S)-7-Oxa-2-aza-spiro[4,5]decane-2-carboxylic acid [7-(3,6-dihydro2H-pyran-4-yl)-4-methoxy-thiazolo[4,5-c]pyridin-2-yl]-amide] | Slightly hygroscopic |  | no tendency to undergo hydrate formation |  |  |  |  |  |  |  | hygroscopicity classification according to Ph. Eur. criteria (section 5.11.) ([1]; 25° C. water vapour sorption, listed as A1 form): slightly hygroscopic; water uptake levels (water vapour sorption) ([1]; full relative humidity range 0-98% RH, listed as A1 form): < 1 % (w/w) |
| COc1ncc(C2=CCOCC2)c2sc(NC(=O)N3CC[C@@]4(CCCOC4)C3)nc12 [hemi fumaric acid co-crystal form A2, (S)-7-Oxa-2-aza-spiro[4,5]decane-2-carboxylic acid [7-(3,6-dihydro2H-pyran-4-yl)-4-methoxy-thiazolo[4,5-c]pyridin-2-yl]-amide] | slightly hygroscopic |  |  | 317 µg/mL | 492 µg/mL | improved dissolution behaviour | 651 µg/mL | 899 µg/mL | 206 µg/mL | 292 µg/mL | water uptake levels (water vapour sorption) ([1]; relative humidity range 0-80% RH): ≤ 0.7 % (w/w) |
